Laboratory results reported in patent US20120149708A1, “MODULATORS OF VIRAL TRANSCRIPTION, AND METHODS AND COMPOSITIONS THEREWITH” (George Mason University, priority 2010, published 2012).

Legend:
HIV-1 transcription = HIV-1 transcription inhibition in T-cells and monocytes; type: cell-based; settings: T-cells versus monocytes
HIV-1 = settings: T-cells, monocytes, and peripheral blood mononuclear cells; cited from earlier work
3′TAR and 5′TAR microRNA = assay: Poly-A RT-PCR of TAR microRNA in TZM-bl cells with or without TSA; type: cell-based, HIV-1
Experimental: RNA was extracted 48 hrs-post drug treatment. 500 ng of RNA from the microRNA-enriched fraction was used to generate cDNA using the Quantimir kit (SBI) in order to poly adenylate small RNA species. RT reactions were performed followed by PCR in which a universal reverse primer was provided by the manufacturer. Specific microRNA forward primers are identical in sequence to the microRNA of interest. PCR products corresponding to the amplified microRNAs were separated in a 3.5% (w/v) agarose gel. The PCR products are at around 67 bp as compared with the Fermentas 1 kb DNA Plus Ladder. Increased levels of 3′TAR microRNA were produced post CR8#13 treatment.
For poly-A RT-PCR detection of microRNAs, 500 ng of RNA from the microRNA-enriched fraction was used to generate cDNA using the Quantimir kit (SBI) according to the manufacturer's protocol. Briefly, small RNA species are poly-adenylated and then reverse transcription reactions are performed with a company-provided RT primer. For PCR, a universal reverse primer is provided by the manufacturer. Specific microRNA forward primers are identical in sequence to the microRNA of interest. PCR products corresponding to the amplified microRNAs were separated in a 3.5% (w/v) agarose gel and quantified using the Kodak 1D software.
To determine whether the cdk inhibitors Flavopiridol, CR8, and CR8#13 increased levels of TAR microRNA in the TSA-treated and control TZM-bl cells total RNA was extracted from both TSA treated and control cells treated with Flavopiridol, CR8, and CR8#13 and processed for RT-PCR detection of microRNAs, specifically, for the presence of 3′TAR and 5′TAR molecules.

HIV-1 LTR-CAT reporter = assay: CAT assay of Tat-mediated transactivation in HCT116 WT and Dicer-/- cells; type: cell-based; settings: HCT116 WT (Dicer) versus Dicer-/-; 48 hrs; Flavopiridol, CR8#13, F07#13 100 nm, 9AA 1000 nm
Experimental: Six hours later, the transfected cells were treated with DMSO, Flavopirodol (100 nm), CR8#13 (100 nm), F07#13 (100 nm), and 9AA (1000 nm). Treated cells were incubated in complete DMEM for 48 hrs at 37° C. Cells were harvested and cell extracts were used for CAT analysis. One tenth the amount of HCT116 Dicer−/−extract compared to HCT116 WT was used for CAT analysis. […] The corresponding bar graphs in A and B show values that represent the percentage of conversion of the [14C] chloramphenicol substrate in the CAT assay.
Various cells lines were transfected with the HIV-1 LTRCAT plasmid and pc-Tat to initiate the LTR transcription, and subsequently subjected to various drug treatments. After 48 hrs, cells were lysed and CAT assays were performed as previously described (Guendel et al, 2009; Van Duyne et al, 2008; Easley et al, 2010).
To evaluate the role on microRNA machinery in inhibition of viral transcription activity, HCT116 colon carcinoma cell lines that either contained a WT Dicer (HCT116 WT) or lacked the Dicer protein (HCT116 Dicer-−/−) were first transfected with the HIV-1 LTR-CAT reporter construct. The HIV-1 LTR transcription was activated with pc-Tat and following incubation for 6 hours was treated with DMSO (negative control), Flavopiridol (positive control), CR8#13, F07#13, or 9AA.
Cells were harvested 48 hrs-post treatment and processed for CAT assays (FIGS. 3A and B). […] Based on this observation the inventors hypothesize that the microRNA machinery, Dicer and Drosha, plays an inhibitory role in HIV-1 transcription.

[1] = tested on: HIV-1 (pNL4.3) in Jurkat T-cells; assay: Reverse transcriptase assay of supernatants, pNL4.3 electroporated cells; type: cell-based; settings: Flavopiridol 200 nm, CR8 100 nm, CR8#13 50 nm, 48 hours
Experimental: (§1) Jurkat T-cell and promonocytic U937 cells were electroporated with 5 μg pNL4.3 followed the next day by drug treatment of Flavopiridol (200 nm), CR8 (100 nm) or CR8#13 (50 nm). Cell supernatants were collected at 48 hours post drug treatment. Viral supernatants (10 μl) were incubated in a 96-well plate with reverse transcriptase (RT) reaction mixture overnight at 37° C., and 10 μl of the reaction mix was spotted on a DEAE Filtermat paper, washed with 5% (w/v) Na2HPO4 followed by water wash, and then dried completely. RT activity was measured in a Betaplate counter.
(§2) For electroporations, Jurkat and U937 cells were resuspended at 3 million cells in 250 μl of RPMI. Five microgram of pNL4-3 was then added to the cell suspension. Cells were pulsed a single time at 210V, 800 μF, and low resistance. Electroporated cells were immediately transferred to RPMI-1640 with L-glutamine and Penicillin/Streptomycin with 10% (v/v) FBS and plated in 6 well plates. Twenty four hours-post electroporation, cells were treated with drugs for additional 48 hrs and harvested for RT analysis. RT assays were performed as described in ((Guendel et al. 2009; Easley et al. 2010).
(§3) The present inventors examined whether Formula I, or Formula II compounds were effective inhibiting viral transcription in cell lines infected with an HIV-1 construct. Thus, Jurkat T-cells and promonocytic U937 cells were transfected with pNL4.3 and then treated with Flavopiridol, CR8 and CR8#13. Similar to monocytes, the Dicer levels are low to undetectable in promonocytic cells (FIG. 6) and was detectable only when these cells had differentiated into macrophages with PMA treatment.
(§4) Following drug treatment cell supernatants were collected and processed for exogenous reverse transcriptase (RT) levels.

[2] = tested on: HIV-1 (pNL4.3) in promonocytic U937 cells; assay: as above; type: cell-based; settings: Flavopiridol 200 nm, CR8 100 nm, CR8#13 50 nm, 48 hours
Experimental: as §1, §2, §3, §4

[3] = tested on: HIV-1 infected and uninfected cells; assay: Classification of inhibitors by effect on viability of infected versus uninfected cells; type: cell-based; settings: 50 nM; high, moderate or poor
From the text: The inhibitors were classified into three categories: high, moderate or poor, according to their effect on cellular viability in both HIV-1 infected and uninfected cells. Among the compounds tested in this study, CR8, a purine analog bearing a 2-pyridyl group para to the phenyl ring position 6 of the purine was the most promising drug candidate that killed HIV-1 infected cells, while having little or no effect on the death of uninfected cells.

[4] = tested on: infected ACH2, J1.1, OM10.1, U1 cells; assay: MTT assay, infected cells; type: cell-based; settings: 50 nm and 10 μM
Experimental: (§5) FIGS. 1 and 2 show screening results of CR8 derivatives on Tat-dependent transcription HIV-1 LTR. […] TZM-bl cells were transfected with 1 ug of Tat and treated the next day with DMSO, or the indicated CR8 derivative compounds at 50 nm. 48 hrs-post drug treatment, luciferase activity of the firefly luciferase was measured with the BrightGlo Luciferase Assay and luminescence was read from a 96 well plate on an EG&G Berthold luminometer. Assays were performed in triplicate, average and standard deviations are shown.
(§6) Quantitative MTT assays were performed (FIG. 2), to further validate the cell growth inhibitory activity of certain Formula I compounds. In this study, cultured, infected ACH2, J1.1, OM10.1, U1 and uninfected CEM, Jurkat T-cells, and U937 cells were brought in contact with Formula I compounds CR8, MRT-033, and BJFP1154 (CR8#13). Cell growth inhibition study was performed at two different concentrations of the inventive compounds, a low concentration of 50 nm, and high concentration of 10 μM.

[5] = tested on: J1.1 cells (HIV-1 infected); assay: Cell viability by trypan blue exclusion, 48 hours; type: cell-based; settings: 50 nM, 48 hrs, HIV-1 infected
Experimental: (§7) In brief, the inhibition studies were carried out as follows. HIV-1 infected cells ACH2, J1.1, OM10.1, U1 and uninfected CEM, Jurkat T-cells, and U937 were cultured in media. The appropriate inhibitor was added at a concentration of 10 μM. Cells were treated for 48 hours and cell viability was determined using trypan blue exclusion method. Results of such a screen for 19 inhibitors is shown in Table 1 where percent dead cells are indicated each drug tested.
(§8) Again HIV-1 infected and uninfected cells were treated with eighteen Formula I compounds at a drug concentration of 50 nm. Forty-eight hours after treatment, cytotoxicity was determined by trypan blue dye exclusion. Percent inhibition was calculated after obtaining the cell density for each well of the tissue culture plate at the end of 48 hrs.

[6] = tested on: OM10.1 cells (HIV-1 infected); assay: Cell viability by trypan blue exclusion, 48 hours; type: cell-based; settings: Human immunodeficiency virus 1; 50 nM, 48 hrs, HIV-1 infected; read-out: Inhibition Percentage OM10.1
Experimental: as §7, §8

[7] = tested on: U1 cells (HIV-1 infected); assay: Cell viability by trypan blue exclusion, 48 hours; type: cell-based; settings: 50 nM, 48 hrs, HIV-1 infected
Experimental: as §7, §8

U937 cells (uninfected) = assay: Cell viability by trypan blue exclusion, 48 hours; type: cell-based; settings: Homo sapiens, U-937, 50 nM, 48 hrs, read-out: Inhibition Percentage U937
Experimental: (§9) TZM-bl cell lines were grown in Dulbecco's modified Eagle's medium supplemented with fetal bovine serum (FBS) (10%, v/v), 2 mM L-glutamine, and antibiotics (penicillin 100 U/ml, streptomycin […]) (cDMEM). HCT116 WT and HCT116 Dicer−/−cell lines were grown in McCoy's medium supplemented with FBS (10%, v/v), 2mM L-glutamine, and antibiotics (penicillin 100 U/ml, streptomycin […]). CEM, ACH2, Jurkat and U937 cells were grown in RPMI 1640 supplemented with FBS, L-glutamine, and antibiotics (penicillin 100 U/ml, streptomycin […]). All cell lines were maintained at 37° C. in 5% (v/v) CO2.
(§10) ACH2 cells are infected with HIV-1; TZM-bl cells contain a stably-integrated HIV-1 LTR-Luciferase reporter; CEM, Jurkat, and U937 cells are uninfected. Transfections were carried out using Attractene (Qiagen) lipid reagent. Cells were cultured to confluence and pelleted at 4° C. for 15 min at 3,000 rpm. The cell pellets were washed twice with 25 ml of phosphate-buffered saline (PBS) with Ca2+ and Mg2+ (Quality Biological) and centrifuged once more. Cell pellets were resuspended in lysis buffer (50 mM Tris-HCl, pH 7.5, 120 mM NaCl, 5 mM EDTA, 0.5%, v/v, NP-40, 50 mM NaF, 0.2 mM Na3VO4, 1 mM DTT, one complete protease cocktail tablet/50 ml (Roche) and incubated on ice for 20 min, with gentle vortexing every 5 min. Cell lysates were transferred to eppendorf tubes and were centrifuged at 10,000 rpm for 10 min. Supernatants were transferred to a fresh tube where protein concentrations were determined using Bio-Rad protein assay (Bio-Rad, Hercules, Calif.).
as §7, §8

CEM cells (uninfected) = assay: Cell viability by trypan blue exclusion, 48 hours; type: cell-based; settings: 50 nM, 48 hrs
Experimental: as §9, §10, §7, §8

[8] = tested on: uninfected CEM, Jurkat T-cells, and U937 cells; assay: MTT assay, uninfected cells; type: cell-based; settings: 50 nm and 10 μM
Experimental: as §5, §6

[9] = tested on: ACH2 cells (HIV-1 infected); assay: Cell viability by trypan blue exclusion, 48 hours; type: cell-based; settings: Human immunodeficiency virus 1, ACH-2, 48 h, read-out: Inhibition Percentage ACH2, 50 nM, 48 hrs, HIV-1 infected
Experimental: as §9, with “CO2. […]” for “CO2.”
as §7, §8

[10] = tested on: Jurkat T-cells (uninfected); assay: Cell viability by trypan blue exclusion, 48 hours; type: cell-based; settings: Homo sapiens, Jurkat, 50 nM, 48 hrs, read-out: Inhibition Percentage Jurkat
Experimental: as §9, with “CO2. […]” for “CO2.”
as §7, §8

CC[C@@H](CO)Nc1nc(NCc2ccc(-c3ccccn3)cc2)c2ncn(C(C)C)c2n1 [Cyc202]
inhibition of transcription (HIV-1 transcription): effectively inhibited transcription in T-cells but not in monocytes
inhibition of HIV-1 (IC50) (HIV-1): low IC50

CN1CC[C@H](c2c(O)cc(O)c3c(=O)cc(-c4ccccc4Cl)oc23)[C@H](O)C1 [Flavopiridol]
3′ and 5′ TAR microRNA amount (3′TAR and 5′TAR microRNA; TZM-bl cells treated with TSA for 7 days, then drug): higher amounts of both 3′ and 5′ TAR microRNA
3′ TAR microRNA amount (3′TAR and 5′TAR microRNA; non-TSA treated TZM-bl cells, Flavopiridol 50 nm, CR8 100 nm, CR8#13 100 nm): significantly increased amount of the 3′ TAR microRNA
inhibition of viral transcription (CAT) (HIV-1 LTR-CAT reporter): inhibited viral transcription significantly better in cells that contained Dicer
RT levels in supernatant [1]: able to decrease RT levels in both cell lines
RT levels in supernatant [2]: able to decrease RT levels in both cell lines

CC[C@H](CO)Nc1nc(NCc2ccc(-c3ccccn3)cc2)n2ncc(C(C)C)c2n1.O=C(O)/C=C/C(=O)O [MRT-033, R-2-(8-isopropyl-4-(4-(pyridine-2-yl)benzylamino)pyrazolo[1,5-α]-1,3,5-triazine-2-ylamino)butan-1-ol]
Selectivity [3]: High
cell killing of infected cells (MTT) [4]: significant cell killing of infected cells over uninfected cells
Inhibition Percentage J1.1 [5]: ++ (~50%)
inhibition at 0.05 µM [6]: 75%
Inhibition Percentage U1 [7]: ++ (~50%)
inhibition at 0.05 µM (U937 cells (uninfected)): 90%
Inhibition Percentage CEM (CEM cells (uninfected)): + (~25%)
cell inhibition of uninfected cells (MTT) [8]: some cell inhibition activity of uninfected cells
inhibition at 0.05 µM [9]: 90%
inhibition at 0.05 µM [10]: 50%
